Consider 21 compounds from patent EP3478687B1 (Daewoong Pharmaceutical Co., Ltd., priority 2016, dated 2018).

Assay [1] concerns the target T1, Recombinant purified human JAK3 (Homo sapiens, UniProt P52333).
T1 construct: purchased Promega V9441
T1 sequence (P52333 1-1124): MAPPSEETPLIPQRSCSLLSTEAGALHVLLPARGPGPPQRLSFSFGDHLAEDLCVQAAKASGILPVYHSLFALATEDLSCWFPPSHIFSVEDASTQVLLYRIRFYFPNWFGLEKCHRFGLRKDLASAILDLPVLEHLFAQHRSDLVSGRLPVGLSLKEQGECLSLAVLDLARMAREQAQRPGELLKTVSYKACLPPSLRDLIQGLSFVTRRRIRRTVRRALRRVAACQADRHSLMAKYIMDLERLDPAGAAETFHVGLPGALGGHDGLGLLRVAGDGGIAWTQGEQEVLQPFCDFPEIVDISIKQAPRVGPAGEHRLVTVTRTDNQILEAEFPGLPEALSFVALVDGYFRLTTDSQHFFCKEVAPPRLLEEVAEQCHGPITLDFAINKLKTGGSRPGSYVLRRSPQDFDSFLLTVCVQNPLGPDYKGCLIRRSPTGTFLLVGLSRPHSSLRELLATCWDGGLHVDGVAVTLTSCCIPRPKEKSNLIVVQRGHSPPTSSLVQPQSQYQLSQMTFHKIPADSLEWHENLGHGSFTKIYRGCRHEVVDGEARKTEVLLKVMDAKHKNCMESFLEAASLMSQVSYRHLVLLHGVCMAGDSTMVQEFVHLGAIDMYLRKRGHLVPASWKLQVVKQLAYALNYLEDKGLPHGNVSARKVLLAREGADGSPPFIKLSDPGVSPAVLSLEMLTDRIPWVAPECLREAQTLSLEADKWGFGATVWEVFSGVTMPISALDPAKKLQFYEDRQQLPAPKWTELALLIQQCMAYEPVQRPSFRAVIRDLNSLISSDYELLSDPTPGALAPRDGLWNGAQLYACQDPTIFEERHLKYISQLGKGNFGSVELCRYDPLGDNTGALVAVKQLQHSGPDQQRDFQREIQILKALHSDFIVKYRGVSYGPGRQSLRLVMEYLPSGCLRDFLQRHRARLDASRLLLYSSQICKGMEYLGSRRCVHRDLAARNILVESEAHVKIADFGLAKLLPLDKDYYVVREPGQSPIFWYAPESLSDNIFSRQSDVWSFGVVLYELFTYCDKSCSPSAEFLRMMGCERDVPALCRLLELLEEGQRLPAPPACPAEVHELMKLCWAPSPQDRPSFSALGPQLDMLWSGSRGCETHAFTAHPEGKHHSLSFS
Kind of assay: JAK3 kinase inhibitory activity, ADP-Glo kinase assay (Promega V9441). Format: biochemical. As to conditions: ATP 5 uM, 4 ng JAK3 per reaction, 1 hour 30 °C, chemiluminescence. The procedure, abridged:
(§1)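 Recombinant human kinases in Tris pH 7.5 buffer with MgCl2, BSA and DTT (MnCl2 added for BTK), 4 ng JAK3 or 8 ng BTK per reaction. Poly(Glu4,Tyr1) 0.2 µg/µL with 5 µM (JAK3) or 10 µM (BTK) ATP, 1% DMSO, 1 h at 30 °C. ADP-Glo luminescence used to derive IC50.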

Assay [2] concerns the target T2, Recombinant purified human BTK (Homo sapiens, UniProt Q06187).
T2 construct: purchased Promega V9071
Description: BTK kinase inhibitory activity, ADP-Glo kinase assay (Promega V9071). Format: biochemical. Conditions: ATP 10 uM, 8 ng BTK per reaction, 1 hour 30 °C, chemiluminescence. The method, boiled down: as §1

Structures can show the parent of a compound that is named as a salt.

T2 sequence (Q06187 whole entry): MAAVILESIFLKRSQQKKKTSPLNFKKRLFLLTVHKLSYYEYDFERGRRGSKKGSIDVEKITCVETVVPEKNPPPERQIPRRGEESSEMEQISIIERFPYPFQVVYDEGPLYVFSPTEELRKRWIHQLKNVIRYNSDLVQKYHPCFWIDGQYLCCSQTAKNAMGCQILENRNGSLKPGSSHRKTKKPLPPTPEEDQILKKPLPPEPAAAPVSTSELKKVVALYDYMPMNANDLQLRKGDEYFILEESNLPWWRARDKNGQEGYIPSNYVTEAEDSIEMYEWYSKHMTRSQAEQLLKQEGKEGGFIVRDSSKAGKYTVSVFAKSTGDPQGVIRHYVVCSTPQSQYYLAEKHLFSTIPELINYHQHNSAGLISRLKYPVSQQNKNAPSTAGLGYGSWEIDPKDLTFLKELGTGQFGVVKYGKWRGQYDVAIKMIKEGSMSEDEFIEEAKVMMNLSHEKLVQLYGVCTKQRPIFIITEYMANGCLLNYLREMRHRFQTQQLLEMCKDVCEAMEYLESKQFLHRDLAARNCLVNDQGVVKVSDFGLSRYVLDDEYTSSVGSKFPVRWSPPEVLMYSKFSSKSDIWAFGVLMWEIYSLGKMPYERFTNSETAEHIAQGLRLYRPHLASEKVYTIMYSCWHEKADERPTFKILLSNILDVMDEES

In the case of `C=CC(=O)N1CC[C@@H](F)[C@@H](Nc2nc(Nc3cnn(CC)c3)nc3[nH]ncc23)C1` [Example 77, 1-((3S,4R)-3-((6-((1-ethyl-1H-pyrazol-4-yl)amino)-1H-pyrazolo [3,4-d]pyrimidin-4-yl)amino)-4-fluoropiperidin-1-yl)prop-2-en-1-one], the IC50 was found to be 6 nM in assay [1] and 1.1 nM in assay [2].

For `C=CC(=O)N1CCC[C@@H](Nc2nc(Nc3cnn(C4CC4)c3)nc3[nH]cc(C)c23)C1` [Example 78, (R)-1-(3-((2-((1-cyclopropyl-1H-pyrazol-4-yl)amino)-5-methyl-7H-pyrrolo[2,3-d]pyrimidin-4-yl)amino)piperidin-1-yl)prop-2-en-1-one], the values for the half-maximal inhibitory concentration (IC50) in assay [1] and in assay [2] were 0.7 nM and 11.5 nM, respectively.

Regarding `C=CC(=O)N1CCC[C@@H](Nc2nc(Nc3cnn(CC)c3)nc3[nH]cc(C)c23)C1` [Example 79, (R)-1-(3-((2-((1-ethyl-1H-pyrazol-4-yl)amino)-5-methyl-7H-pyrrolo[2,3-d]pyrimidin-4-yl)amino)piperidin-1-yl)prop-2-en-1-one], the half-inhibitory concentration (IC50) in assay [1] was found to be 0.4 nM; in assay [2] it was 9.2 nM.

As for `C=CC(=O)N1CCC[C@@H](Nc2nc(Nc3ccc(-n4nc(C)cc4C)cc3)nc3[nH]cc(C)c23)C1` [Example 80, (R)-1-(3-((2-((4-(3,5-dimethyl-1H-pyrazol-1-yl)phenyl)amino)-5-methyl-7H-pyrrolo[2,3-d]pyrimidin-4-yl)amino)piperidin-1-yl)prop-2-en-1-one], the 50% inhibitory concentration (IC50) was determined as 8.4 nM in assay [1] and 33.3 nM in assay [2].

Consider `C=CC(=O)N1CCC[C@@H](Nc2nc(Nc3ccc4ncsc4c3)nc3[nH]cc(C)c23)C1` [Example 81, (R)-1-(3-((2-(benzo[d]thiazol-6-ylamino)-5-methyl-7H-pyrrolo[2,3-d]pyrimidin-4-yl)amino)piperidin-1-yl)prop-2-en-1-one], for which the results for the IC50 in assay [1] and in assay [2] were 3.8 nM and 25.5 nM, respectively.

Take `C=CC(=O)N1CCC[C@@H](Nc2nc(Nc3cnn(CC)c3)nc3[nH]cc(F)c23)C1` [Example 82, (R)-1-(3-((2-((1-ethyl-1H-pyrazol-4-yl)amino)-5-fluoro-7H-pyrrolo[2,3-d]pyrimidin-4-yl)amino)piperidin-1-yl)prop-2-en-1-one]: the figures for the IC50 in assay [1] and in assay [2] were 0.3 nM and 0.9 nM, respectively.

As to `C=CC(=O)N1CCC[C@@H](Nc2nc(Nc3cc(C)ns3)nc3[nH]cc(F)c23)C1` [Example 83, (R)-1-(3-((5-2-((3-methylisothiazol-5-yl)amino)-7H-pyrrolo[2,3-d]pyrimidin-4-yl)amino)piperidin-1-yl)prop-2-en-1-one], the IC50 was 1.2 nM in assay [1] and 3.4 nM in assay [2].

For the compound `C=CC(=O)N1CC[C@@H](C)[C@@H](Nc2nc(Nc3cnn(CC)c3)nc3[nH]cc(F)c23)C1` [Example 84, 1-((3R,4R)-3-((2-((1-ethyl-1H-pyrazol-4-yl)amino)-5-fluoro-7H-pyrrolo[2,3-d]pyrimidin-4-yl)amino)-4-methylpiperidin-1-yl)prop-2-en-1-one], the IC50 in assay [1] was determined as 3.8 nM; in assay [2], 6.6 nM.

Turning to `C=CC(=O)N1CCC[C@@H](Sc2nc(Nc3cnn(CC)c3)nc3[nH]cc(F)c23)C1` [Example 85, (R)-1-(3-((2-((1-ethyl-1H-pyrazol-4-yl)amino)-5-fluoro-7H-pyrrolo[2,3-d]pyrimidin-4-yl)thio)piperidin-1-yl)prop-2-en-1-one], the IC50 in assay [1] turned out to be 1.5 nM; in assay [2], 2.2 nM.

Consider `C=CC(=O)N1CC[C@@H](F)[C@@H](Nc2nc(Nc3cnn(CC)c3)nc3[nH]cc(F)c23)C1` [Example 86, 1-((3S,4R)-3-((2-((1-ethyl-1H-pyrazol-4-yl)amino)-5-fluoro-7H-pyrrolo[2,3-d]pyrimidin-4-yl)amino)-4-fluoropiperidin-1-yl)prop-2-en-1-one], for which the concentration for half-maximal inhibition (IC50) came out at 0.4 nM in assay [1] and 1 nM in assay [2].

As for `C=CC(=O)N1CCC[C@@H](N(C)c2nc(Nc3cnn(CC)c3)nc3[nH]cc(F)c23)C1` [Example 87, (R)-1-(3-((2-((1-ethyl-1H-pyrazol-4-yl)amino)-5-fluoro-7H-pyrrolo[2,3-d]pyrimidin-4-yl)(methyl)amino)piperidin-1-yl)prop-2-en-1-one], the IC50 was 16.4 nM in assay [1] and 42.2 nM in assay [2].

Consider `C=CC(=O)N1CCC[C@@H](Nc2nc(Nc3cnn(CC)c3)nc3[nH]cc(C#N)c23)C1` [Example 88, (R)-4-((1-acryloylpiperidin-3-yl)amino)-2-((1-ethyl-1H-pyrazol-4-yl)amino)-7H-pyrrolo [2,3-d] pyrim idine-5-carbonitrile], for which the IC50 in assay [1] was found to be 0.2 nM; in assay [2] it was 1.1 nM.

On to `C=CC(=O)N1CCC[C@@H](Nc2nc(Nc3cnn(C4CC4)c3)nc3[nH]cc(C#N)c23)C1` [Example 89, (R)-4-((1-acryloylpiperidin-3-yl)amino)-2-((1-cyclopropyl-1H-pyrazol-4-yl)amino)-7H-pyrrolo[2,3-d]pyrimidine-5-carbonitrile], for which the IC50 in assay [1] worked out at 0.138 nM; in assay [2] it was 0.864 nM.

For the compound `C=CC(=O)N1CCC[C@@H](Nc2nc(Nc3cnn(CC(F)F)c3)nc3[nH]nc(Cl)c23)C1` [Example 90, (R)-1-(3-((3-chloro-6-((1-(2,2-difluoroethyl)-1H-pyrazol-4-yl)amino)-1H-pyrazolo [3,4-d]pyrimidin-4-yl)amino)piperidin-1-yl)prop-2-en-1-one hydrochloride], the IC50 is 0.5 nM in assay [1] and 1 nM in assay [2].

Consider `C=CC(=O)N1CCC[C@@H](Nc2nc(Nc3cnn(CC)c3)nc3[nH]nc(Cl)c23)C1` [Example 91, (R)-1-(3-((3-chloro-6-((1-ethyl-1H-pyrazol-4-yl)amino)-1H-pyrazolo[3,4-d]pyrimidin-4-yl)amino)piperidin-1-yl)prop-2-en-1-one hydrochloride], for which the IC50 in assay [1] and in assay [2] was 1.1 nM each time.

With `C=CC(=O)N1CC[C@@H](C)[C@@H](Nc2nc(Nc3cnn(CC)c3)nc3[nH]nc(Cl)c23)C1` [Example 92, 1-((3R,4R)-3-((3-chloro-6-((1-ethyl-1H-pyrazol-4-yl)amino)-1H-pyrazolo[3,4-d]pyrimidin-4-yl)amino)-4-methylpiperidin-1-yl)prop-2-en-1-one], the concentration for half-maximal inhibition (IC50) in assay [1] turned out to be 4.5 nM; in assay [2] it was 2.1 nM.

Turning to `C=CC(=O)N1CC[C@@H](C)[C@@H](Nc2nc(Nc3cnn(CC(F)F)c3)nc3[nH]nc(Cl)c23)C1` [Example 93, 1-((3R,4R)-3-((3-chloro-6-((1-(2,2-difluoroethyl)-1H-pyrazol-4-yl)amino)-1H-pyrazolo [3,4-d]pyrimidin-4-yl)amino)-4-methylpiperidin-1-yl)prop-2-en-1-one], the IC50 in assay [1] came out at 2 nM; in assay [2], 1.3 nM.

Take `C=CC(=O)N1CC[C@@H](C)[C@@H](Nc2nc(Nc3cnn(C4CC4)c3)nc3[nH]nc(Cl)c23)C1` [Example 94, 1-((3R,4R)-3-((3-chloro-6-((1-cyclopropyl-1H-pyrazol-4-yl)amino)-1H-pyrazolo[3,4-d]pyrimidin-4-yl)amino)-4-methylpiperidin-1-yl)prop-2-en-1-one]: the IC50 came to 4.5 nM in assay [1] and 1.7 nM in assay [2].

Take `C=CC(=O)N1CCC[C@@H](Nc2nc(Nc3cnn(CCN(CC)CC)c3)nc3[nH]cc(Cl)c23)C1` [Example 95, (R)-1-(3-((5-chloro-2-((1-(2-(diethylamino)ethyl)-1H-pyrazol-4-yl)amino)-7H-pyrrolo[2,3-d]pyrimidin-4-yl)amino)piperidin-1-yl)prop-2-en-1-one]: the concentration for half-maximal inhibition (IC50) in assay [1] turned out to be 0.5 nM; in assay [2], 5.9 nM.

On to `C=CC(=O)N1CCC[C@@H](Nc2nc(Nc3cnoc3)nc3[nH]cc(Cl)c23)C1` [Example 96, (R)-1-(3-((5-chloro-2-(isoxazol-4-ylamino)-7H-pyrrolo[2,3-d]pyrimidin-4-yl)amino)piperidin-1-yl)prop-2-en-1-one], for which the IC50 worked out at 0.7 nM in assay [1] and 24 nM in assay [2].

Consider `C=CC(=O)N1CCC[C@@H](Nc2nc(Nc3ccc(N4CCOCC4)cc3F)nc3[nH]cc(Cl)c23)C1` [Example 97], for which the figures for the 50% inhibitory concentration (IC50) in assay [1] and in assay [2] were above 80 nM and 708 nM, respectively.

One may read the IC50 as the concentration at which inhibition is half-maximal.
